PubChem BioAssay (NCI)
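The concentration for 50% growth inhibition is given as GI50. TGI marks complete inhibition of growth.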

Assays:
Assay in all cases: inhibition of tumour cell growth, NCI panel, 384-well format
NCI-H460 NSCLC = tested on: NCI-H460 NSCLC
SF-268 CNS = tested on: SF-268 CNS
OVCAR-5 ovarian = tested on: OVCAR-5 ovarian
SK-MEL-28 melanoma = tested on: SK-MEL-28 melanoma
UO-31 renal = tested on: UO-31 renal
HOP-92 NSCLC = tested on: HOP-92 NSCLC
COLO 205 colon = tested on: COLO 205 colon
OVCAR-4 ovarian = tested on: OVCAR-4 ovarian
A549 NSCLC = tested on: A549 NSCLC
CAKI-1 renal = tested on: CAKI-1 renal
MCF7 breast = tested on: MCF7 breast
MALME-3M melanoma = tested on: MALME-3M melanoma
HCC-2998 colon = tested on: HCC-2998 colon
SF-295 CNS = tested on: SF-295 CNS
SNB-75 CNS = tested on: SNB-75 CNS
RXF 393 renal = tested on: RXF 393 renal
LOX IMVI melanoma = tested on: LOX IMVI melanoma
UACC-62 melanoma = tested on: UACC-62 melanoma
HS 578T breast = tested on: HS 578T breast
MDA-MB-231 breast = tested on: MDA-MB-231 breast
NCI-H23 lung = tested on: NCI-H23 lung
NCI-H522 lung = tested on: NCI-H522 lung
SF-539 CNS = tested on: SF-539 CNS
HL-60(TB) leukemia = tested on: HL-60(TB) leukemia
SR leukemia = tested on: SR leukemia
KM12 colon = tested on: KM12 colon
MDA-MB-435 melanoma = tested on: MDA-MB-435 melanoma
HCT-15 colon = tested on: HCT-15 colon
A498 renal = tested on: A498 renal
HOP-62 NSCLC = tested on: HOP-62 NSCLC
NCI-H322M lung = tested on: NCI-H322M lung
BT-549 breast = tested on: BT-549 breast
PC-3 prostate = tested on: PC-3 prostate
TK-10 renal = tested on: TK-10 renal
CCRF-CEM leukemia = tested on: CCRF-CEM leukemia
HCT-116 colon = tested on: HCT-116 colon
ACHN renal = tested on: ACHN renal
OVCAR-8 ovarian = tested on: OVCAR-8 ovarian
SK-OV-3 ovarian = tested on: SK-OV-3 ovarian
NCI/ADR-RES ovarian = tested on: NCI/ADR-RES ovarian
EKVX NSCLC = tested on: EKVX NSCLC
SNB-19 CNS = tested on: SNB-19 CNS
IGROV1 ovarian = tested on: IGROV1 ovarian
M14 melanoma = tested on: M14 melanoma
HT29 colon = tested on: HT29 colon
T-47D breast = tested on: T-47D breast
MDA-MB-468 breast = tested on: MDA-MB-468 breast
SW-620 colon = tested on: SW-620 colon
U251 glioblastoma = tested on: U251 glioblastoma
DU-145 prostate = tested on: DU-145 prostate
SK-MEL-2 melanoma = tested on: SK-MEL-2 melanoma
786-0 renal = tested on: 786-0 renal
MOLT-4 leukemia = tested on: MOLT-4 leukemia
SN12C renal = tested on: SN12C renal
SK-MEL-5 melanoma = tested on: SK-MEL-5 melanoma
OVCAR-3 ovarian = tested on: OVCAR-3 ovarian
K-562 leukemia = tested on: K-562 leukemia
NCI-H226 lung = tested on: NCI-H226 lung
UACC-257 melanoma = tested on: UACC-257 melanoma

Cc1nc(N2CCC3(CC2)CO[C@@H](C)[C@H]3N)c(CO)nc1Sc1ccnc(N)c1Cl
GI50 (NCI-H460 NSCLC): 41.8 µM | TGI (NCI-H460 NSCLC): > 100 µM | GI50 (SF-268 CNS): 91.6 µM | TGI (SF-268 CNS): > 100 µM | GI50 (OVCAR-5 ovarian): 92.7 µM | TGI (OVCAR-5 ovarian): > 100 µM | GI50 (SK-MEL-28 melanoma): 40.1 µM | TGI (SK-MEL-28 melanoma): > 100 µM | GI50 (UO-31 renal): 11 µM | TGI (UO-31 renal): > 100 µM | GI50 (HOP-92 NSCLC): 115 nM | TGI (HOP-92 NSCLC): 12.4 µM | GI50 (COLO 205 colon): 41.8 µM | TGI (COLO 205 colon): > 100 µM | GI50 (OVCAR-4 ovarian): 46.6 µM | TGI (OVCAR-4 ovarian): > 100 µM | GI50 (A549 NSCLC): 97 µM | TGI (A549 NSCLC): > 100 µM | GI50 (CAKI-1 renal): 414 nM | TGI (CAKI-1 renal): > 100 µM | GI50 (MCF7 breast): 35.1 µM | TGI (MCF7 breast): > 100 µM | GI50 (MALME-3M melanoma): 24.2 µM | TGI (MALME-3M melanoma): 54.2 µM | GI50 (HCC-2998 colon): 35.5 µM | TGI (HCC-2998 colon): 95 µM | GI50 (SF-295 CNS): 79.8 µM | TGI (SF-295 CNS): > 100 µM | GI50 (SNB-75 CNS): 13.4 µM | TGI (SNB-75 CNS): 94.4 µM | GI50 (RXF 393 renal): 12.5 µM | TGI (RXF 393 renal): 41.5 µM | GI50 (LOX IMVI melanoma): 35.5 µM | TGI (LOX IMVI melanoma): > 100 µM | GI50 (UACC-62 melanoma): 31.4 µM | TGI (UACC-62 melanoma): > 100 µM | GI50 (HS 578T breast): 39.4 µM | TGI (HS 578T breast): > 100 µM | GI50 (MDA-MB-231 breast): > 100 µM | TGI (MDA-MB-231 breast): > 100 µM | GI50 (NCI-H23 lung): 83.8 nM | TGI (NCI-H23 lung): 20.6 µM | GI50 (NCI-H522 lung): 44 nM | TGI (NCI-H522 lung): 18.5 µM | GI50 (SF-539 CNS): 22.1 µM | TGI (SF-539 CNS): > 100 µM | GI50 (HL-60(TB) leukemia): 15.8 µM | TGI (HL-60(TB) leukemia): 29.5 µM | GI50 (SR leukemia): 9.08 µM | TGI (SR leukemia): 21.5 µM | GI50 (KM12 colon): 321 nM | TGI (KM12 colon): > 100 µM | GI50 (MDA-MB-435 melanoma): > 100 µM | TGI (MDA-MB-435 melanoma): > 100 µM | GI50 (HCT-15 colon): 69.3 µM | TGI (HCT-15 colon): > 100 µM | GI50 (A498 renal): 1080 nM | TGI (A498 renal): > 100 µM | GI50 (HOP-62 NSCLC): 54 µM | TGI (HOP-62 NSCLC): > 100 µM | GI50 (NCI-H322M lung): 166 nM | TGI (NCI-H322M lung): > 100 µM | GI50 (BT-549 breast): 17 µM | TGI (BT-549 breast): > 100 µM | GI50 (PC-3 prostate): 54.4 µM | TGI (PC-3 prostate): > 100 µM | GI50 (TK-10 renal): 819 nM | TGI (TK-10 renal): > 100 µM | GI50 (CCRF-CEM leukemia): 24.5 µM | TGI (CCRF-CEM leukemia): 60.2 µM | GI50 (HCT-116 colon): 37.1 µM | TGI (HCT-116 colon): > 100 µM | GI50 (ACHN renal): 2030 nM | TGI (ACHN renal): > 100 µM | GI50 (OVCAR-8 ovarian): 17.2 µM | TGI (OVCAR-8 ovarian): 50.5 µM | GI50 (SK-OV-3 ovarian): 13 µM | TGI (SK-OV-3 ovarian): > 100 µM | GI50 (NCI/ADR-RES ovarian): 17.7 µM | TGI (NCI/ADR-RES ovarian): > 100 µM | GI50 (EKVX NSCLC): 3.13 µM | TGI (EKVX NSCLC): 92.3 µM | GI50 (SNB-19 CNS): 42.1 µM | TGI (SNB-19 CNS): > 100 µM | GI50 (IGROV1 ovarian): 728 nM | TGI (IGROV1 ovarian): > 100 µM | GI50 (M14 melanoma): 21.3 µM | TGI (M14 melanoma): 42.6 µM | GI50 (HT29 colon): 27.5 µM | TGI (HT29 colon): 71.8 µM | GI50 (T-47D breast): 17.5 µM | TGI (T-47D breast): 82.2 µM | GI50 (MDA-MB-468 breast): 145 nM | TGI (MDA-MB-468 breast): 1390 nM | GI50 (SW-620 colon): 54.6 µM | TGI (SW-620 colon): > 100 µM | GI50 (U251 glioblastoma): 15.6 µM | TGI (U251 glioblastoma): > 100 µM | GI50 (DU-145 prostate): 97.5 µM | TGI (DU-145 prostate): > 100 µM | GI50 (SK-MEL-2 melanoma): 34.7 µM | TGI (SK-MEL-2 melanoma): 78.1 µM | GI50 ([…]-0 renal): 29.3 µM | TGI (786-0 renal): > 100 µM | GI50 (MOLT-4 leukemia): 27 µM | TGI (MOLT-4 leukemia): > 100 µM | GI50 (SN12C renal): 8.42 µM | TGI (SN12C renal): > 100 µM | GI50 (SK-MEL-5 melanoma): 16 µM | TGI (SK-MEL-5 melanoma): 31.3 µM | GI50 (OVCAR-3 ovarian): 35.8 µM | TGI (OVCAR-3 ovarian): > 100 µM | GI50 (K-562 leukemia): 61.9 nM | TGI (K-562 leukemia): 15.7 µM | GI50 (NCI-H226 lung): 714 nM | TGI (NCI-H226 lung): > 100 µM | GI50 (UACC-257 melanoma): 19.3 µM | TGI (UACC-257 melanoma): 38.1 µM
